For the assay, the system named is uptake systems for 5HT in the brain. Nature of the assay: in vivo inhibition of p-chloroamphetamine-induced depletion of brain 5HT. The arrangement: species or system Charles River CD rats. The conditions noted are these: Rattus norvegicus, read-out: percentage inhibition of depletion (Ib). Here is the method:
Once inside the neuron the depletor agent displaces the amine transmitter from its storage sites into the cytoplasm of the cell where it is metabolised by monoamine oxidase. […] The levels of the amine transmitter are preserved by pretreatment of the uptake sites with an uptake inhibitor. […] After 30 minutes a solution of p-chloroamphetamine in. distilled water was injected intraperitoneally at a dose of 5 mg/kg. After a further four hours the animals were sacrificed and the 5HT level in the brain determined fluorometrically.
The 5HT level in the brain was also determined in Control animals which received only vehicle solutions and for animals which received vehicle orally instead of the test compound followed by intraperitoneal injections of the depleting agent. These latter animals are referred to herein as depleted controls. The percentage inhibition. of depletion (Ib) was calculated using the formula

The mark [1] stands for this setting: rats, 30 mg/kg orally, p-chloroamphetamine 5 mg/kg i.p. after 30 minutes, brain 5HT level after a further four hours.

Usually inhibition stands for how much of the control response was suppressed.

Counter-ions that a name gives are not always drawn. Like-named read-outs stand apart in the source and are kept apart here.

For the compound `CN(C)CCC=C1c2ccccc2CSc2ccc(C#N)cc21` [Product of Example 1, 11-(3-dimethylaminopropylidene)-6,11-dihydrodibenzo(b,e)thiepin-2-carbonitrile hydrobromide], under setting [1], the inhibition at 30 mg/kg amounted to 82%.

`CN(C)CC/C=C1\c2ccccc2CSc2ccccc21` [Dothiepin]: under setting [1], the inhibition at 30 mg/kg amounted to 9%. As to `CN(C)CCCN1c2ccccc2CCc2ccccc21` [Imipramine], the inhibition at 30 mg/kg amounted to 18%. On to `CN(C)CCCN1c2ccccc2CCc2ccc(Cl)cc21` [Clomipramine], for which the inhibition at 30 mg/kg worked out at 8%.

Regarding `CN(C)CCC=C1c2cc(C#N)ccc2CSc2ccccc21` [Product of Example A, 11-(3-Dimethyl-aminopropylidene)6,1i-dihydrodibenzo[b,e]thiepin-9-carbonitrile hydrobromide], the inhibition at 30 mg/kg under setting [1] was 0%.

(Values after patent EP0101234A1, “Therapeutic agent” (The Boots Company PLC, priority 1982, dated 1984).)
